Patent US20250085273A1, “NOVEL RAPID DRUG DISCOVERY FOR SEPSIS AND AGENTS FOR USE AS SEPSIS THERAPY” (priority 2023, published 2025)
pKi: −log10 of the molar value.

What was measured:
[1] = test system: 3-dpf Zebrafish Embryos Challenged with LPS (P. aeruginosa 60 μg/mL); format: in vivo, Danio rerio; details: P. aeruginosa LPS 60 μg/mL, compound 10 μM
Summary of the method: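 3-dpf PTU-treated AB zebrafish embryos exposed to 60 μg/mL P. aeruginosa LPS plus 10 μM compound (final) at 28.5 °C, n=16 per compound. Tail edema and mortality scored at 6 and 24 h post exposure; rescue judged against LPS-only controls at 24 h.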

[2] = test system: zebrafish (4 dpf pre-treated, LPS exposure at 5-dpf) challenged with P. aeruginosa LPS 60 μg/mL; format: in vivo, Danio rerio
Summary of the method: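 PTU-treated 4 dpf zebrafish embryos received a 24-hour drug pre-treatment at 28.5 °C, alongside an untreated parallel group, before challenge at 5 dpf with P. aeruginosa LPS at 60 μg/mL. Tail edema and mortality were scored at 6 and 24 h post exposure, followed by a neurobehavioral test.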

[3] = test system: larval zebrafish locomotor behavior; format: in vivo; details: in vivo
Source text: This assay is a modified version of the larval zebrafish light dark transition assay with an added UV light (wavelength=295 nm) phase to capture any compound specific neurological effects to UV light. (Basnet et al., 2019, Kokel et al., 2013, Peng et al., 2016). The light period assesses deviations from normal locomotor behavior while the rapid transition to dark provides a measure of stress response by identifying any deviations from the normal heightened locomotor activity caused by the transition to dark. The neurobehavioral assay used a custom trial control script created by Noldus Ethovision XT 15, and it was executed in a Noldus DanioVision system. Zebrafish larvae in microplates were allowed to habituate in the DanioVision system for 5 minutes under white light conditions prior to the start of the test. The neurobehavioral assay consisted of three phases: a 3-minute light phase (white light), a 3-minute dark phase (no light) and a 5 second UV phase (UV light only). The Danio Vision system captured larval zebrafish movement throughout this assay at 30 frames per second.
LC50s for the LPS tests were determined using the Trimmed Spearmen-Karber method (Hamilton et al., 1977). The tail edema and mortality data from the initial and confirmatory drug testing was analyzed using GraphPad Prism 9 using Fisher's Exact Test. Each drug treatment group was compared pairwise with the on-board positive control group on each test plate. Statistical significance was determined with values of p≤0.05. Neurological behavioral testing data was analyzed by Ethovision software that produced an activity analysis profile per frame for each well of the 96 well plates. Any dead embryos were removed from the data set, and the remaining data set was imported into Excel. The offset function in Excel was used to average the percentage of pixel change per 0.1 s for each plate. […] The behavioral data was then statistically analyzed by drug per phase using a 2 tailed t-test to determine statistical significance p≤0.01.

5-HT2B = 5-HT2B (Homo sapiens, UniProt P41595); details: read-out: affinity (Ki) 5-HT2B; cited from earlier work
Chain of 5-HT2B (P41595 whole entry, species assumed): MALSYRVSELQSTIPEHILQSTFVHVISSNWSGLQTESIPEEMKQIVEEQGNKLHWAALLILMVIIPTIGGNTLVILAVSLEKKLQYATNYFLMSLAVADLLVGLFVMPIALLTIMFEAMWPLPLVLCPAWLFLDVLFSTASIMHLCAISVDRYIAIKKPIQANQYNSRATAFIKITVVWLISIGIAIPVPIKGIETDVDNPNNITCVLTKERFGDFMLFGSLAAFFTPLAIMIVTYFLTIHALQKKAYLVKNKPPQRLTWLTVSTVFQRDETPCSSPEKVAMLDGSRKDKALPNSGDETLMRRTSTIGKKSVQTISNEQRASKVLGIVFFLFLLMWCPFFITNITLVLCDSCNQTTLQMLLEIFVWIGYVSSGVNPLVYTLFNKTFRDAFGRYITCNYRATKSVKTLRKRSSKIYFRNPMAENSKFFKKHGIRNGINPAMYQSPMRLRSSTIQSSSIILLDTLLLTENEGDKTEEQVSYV

D3 = D3 (Homo sapiens, UniProt P35462); details: read-out: affinity (Ki) D3; cited from earlier work
Chain of D3 (P35462 whole entry): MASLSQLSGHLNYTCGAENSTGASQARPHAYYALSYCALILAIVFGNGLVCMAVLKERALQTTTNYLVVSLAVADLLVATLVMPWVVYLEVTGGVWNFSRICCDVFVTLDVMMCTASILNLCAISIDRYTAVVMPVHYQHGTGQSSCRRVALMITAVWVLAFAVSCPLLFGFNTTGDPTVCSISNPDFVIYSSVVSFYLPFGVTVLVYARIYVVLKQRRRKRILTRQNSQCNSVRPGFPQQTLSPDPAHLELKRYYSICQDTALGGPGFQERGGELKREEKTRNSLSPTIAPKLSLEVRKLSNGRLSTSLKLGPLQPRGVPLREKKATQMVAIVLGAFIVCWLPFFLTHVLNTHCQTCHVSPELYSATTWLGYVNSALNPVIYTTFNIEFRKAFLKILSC

α1D = molecular target: T1, α1D (Homo sapiens, UniProt P25100); details: read-out: affinity (Ki) α1D; cited from earlier work
T1 sequence (P25100 1-572): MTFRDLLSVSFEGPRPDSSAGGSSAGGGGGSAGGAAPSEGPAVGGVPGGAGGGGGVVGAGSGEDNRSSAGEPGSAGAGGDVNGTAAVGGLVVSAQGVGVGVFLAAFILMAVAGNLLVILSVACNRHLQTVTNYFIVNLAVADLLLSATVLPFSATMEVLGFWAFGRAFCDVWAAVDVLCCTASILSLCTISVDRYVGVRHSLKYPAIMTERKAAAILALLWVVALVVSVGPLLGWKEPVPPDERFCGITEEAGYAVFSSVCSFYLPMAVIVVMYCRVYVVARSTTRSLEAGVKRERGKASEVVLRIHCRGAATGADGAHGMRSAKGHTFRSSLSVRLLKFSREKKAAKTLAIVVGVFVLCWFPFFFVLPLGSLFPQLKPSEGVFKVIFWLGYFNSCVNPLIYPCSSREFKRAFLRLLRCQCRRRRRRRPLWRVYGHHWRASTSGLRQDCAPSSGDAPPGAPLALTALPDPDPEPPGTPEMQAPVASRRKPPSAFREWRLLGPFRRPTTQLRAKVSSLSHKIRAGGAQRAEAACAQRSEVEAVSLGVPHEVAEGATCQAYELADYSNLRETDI

[4] = number of n = 16 fish, 24-hour 10 μM drug pre-treatment
[5] = number of n = 16 fish, no 24-hour pre-treatment

O=c1ccc2ccc(OCCCCN3CCN(c4cccc5sccc45)CC3)cc2[nH]1 [Compound 45, Brexpiprazole]
Percent Rescue (Mort + Tail Edema) ([1]; 3-dpf embryos, 24 hours, n=16): 100%
rescue of tail edema and mortality (sepsis rescue rate) at 3-dpf ([1]; 3-dpf, 24 hours): 100%
3 dpf Embryos Percent Rescue (Mort + Tail Edema) ([1]; initial 3-dpf screen shown for reference): 100%
Pre-Treatment Rescue (n = 16) ([2]; 24-hour drug pre-treatment, P. aeruginosa LPS 60 μg/mL): 94%
No Pre-Treatment Rescue (n = 16) ([2]; no 24-hour drug pre-treatment, P. aeruginosa LPS 60 μg/mL): 94%
24 hour Tail Edema, No-Drug Pretreatment ([2]; number of n = 16 fish, 10 μM drug with LPS 60 μg/mL, no 24-hour pre-treatment): 1 fish
24 Hour Mortality and Tail Edema, Drug Pretreatment [2, 4]: 1 fish
24 Hour Mortality, Drug Pretreatment [2, 4]: 1 fish
24 hour Tail Edema, Drug Pretreatment ([2]; number of n = 16 fish, 24-hour 10 μM drug pre-treatment before LPS 60 μg/mL): 0 fish
24 Hour Mortality and Tail Edema, No-Drug Pretreatment [2, 5]: 1 fish
24 Hour Mortality, No Drug Pretreatment [2, 5]: 0 fish
activity during the dark phase [3]: not significant
pKi (5-HT2B): 8.72
pKi (D3): 8.96
pKi (α1D): 8.59
